From patent publication US20070077607A1, “Novel screening method” (priority 2003, published 2007) come the findings set out here.

Assay [1] relates to HOB cells. Briefly: Cell adhesion assay (cell attachment and cell spreading), HOB cells. The format is cell-based, human. As for the experimental part:
To evaluate cell attachment and cell spreading exponentially growing cells were detached from substratum by trypsinisation (0.25% (v/v) trypsin in 5 mM EDTA), collected into medium containing a ˜7% (V/V) final concentration of FCS, washed twice with medium without serum and then plated (2×10^4cells/well) onto FN-coated 96-well plates with and without further immobilisation of tTG. After a maximum of 20-minute incubation (to minimise the effect of any endogenous secreted proteins) at 37° C. in a 5% CO2 atmosphere, cells were fixed in 3.7% (w/v) paraformaldehyde in PBS pH 7.4, permeabilised in 0.1% (v/v) Triton X-100 and stained with May Grunwald and Giemsa stain (Jones et al 1997, Verderio et al. 2000). In some cases cells were pre-treated for 15 hours with 1 mM cycloheximide before plating to rule out any effects of endogenous secreted adhesion molecules. Digital images of three non-overlapping fields covering the central portion of each well was captured using a video digital camera (Olympus DP10) and examined using the Image Analysis programme Scion Image (National Institute of Health, USA). A total of at least nine images of separate fields per sample were examined for a total of at least 900 cells in the FN control. The number of cell particles in each field was measured by thresholding and particle analysis setting a minimum particle size of 50 pixels. Spread cells were analysed and quantified by “density slicing” and particle analysis.
Adhesion of cells to FN was decreased by pre-incubation with RGD synthetic peptide (50 μg/ml, ˜75 ∝M, 100 μg/ml ˜150 μM, or 200 μg/ml ˜300 μM) or function blocking anti-integrin antibodies 40 μg/ml anti-β1 integrin (JB1A), 30 μg/ml anti-α5 integrin (P1D6). Detached cells (as described above) were pre-incubated in suspension (2×10^5cells/ml) in serum-free medium containing either RGD peptide or anti-integrins antibodies at 37° C. for 10 minutes in 5% CO2 atmosphere, and then seeded in the presence of the peptides.

The next assay concerns Swiss 3T3 fibroblasts. Briefly: Cell adhesion assay (cell attachment and cell spreading), Swiss 3T3 fibroblasts. Type of assay: cell-based, mouse. To be noted: 100 μg/ml RGD peptide. As for the experimental part: To evaluate cell attachment and cell spreading exponentially growing cells were detached from substratum by trypsinisation (0.25% (v/v) trypsin in 5 mM EDTA), collected into medium containing a ˜7% (V/V) final concentration of FCS, washed twice with medium without serum and then plated (2×10^4cells/well) onto FN-coated 96-well plates with and without further immobilisation of tTG. After a maximum of 20-minute incubation (to minimise the effect of any endogenous secreted proteins) at 37° C. in a 5% CO2 atmosphere, cells were fixed in 3.7% (w/v) paraformaldehyde in PBS pH 7.4, permeabilised in 0.1% (v/v) Triton X-100 and stained with May Grunwald and Giemsa stain (Jones et al 1997, Verderio et al. 2000). In some cases cells were pre-treated for 15 hours with 1 mM cycloheximide before plating to rule out any effects of endogenous secreted adhesion molecules. Digital images of three non-overlapping fields covering the central portion of each well was captured using a video digital camera (Olympus DP10) and examined using the Image Analysis programme Scion Image (National Institute of Health, USA). […] The number of cell particles in each field was measured by thresholding and particle analysis setting a minimum particle size of 50 pixels. Spread cells were analysed and quantified by “density slicing” and particle analysis. […]

For assay [2], the system named is HOB cells. Type of assay: cell-based, human. To be noted: FN+RGD.
In the next assay the test system is FAK. Briefly: FAK tyrosine phosphorylation (western blot, phospho(Tyr397)-FAK). The format is cell-based, human. To be noted: HOB; RGD peptide (100 μg/ml). As for the experimental part:
A cell suspension of 2×10^5 cells/ml was seeded in 9.6 cm^2-wells (6×10^5 cells/well) pre-coated with FN, tTG-FN or heat-inactivated 3% BSA (w/v) in PBS pH 7.4. After 30-minute incubation at 37° C. in a 5% CO2 atmosphere, the supernatant medium was removed, and non-adhered cells collected by spinning at 270 g for 5 minutes and then lysed in reducing Laemmli sample buffer at 95° C. for 5 minutes. The layer of adhered cells was scraped and similarly lysed (200 μl/well). The lysates of adhered and non-adherent cells were pooled together, fractionated (¼ aliquot) on 8% SDS-PAGE and then western blotted. Blots were incubated with a polyclonal rabbit anti-human phospho(Tyr 397)-FAK (1/2000), for ˜15 hours at +4° C. followed by anti-rabbit IgG peroxidase-conjugate (1/2000) for 2 hours at 21° C. Bands were detected by chemi-luminescence (Amersham), following manufacturer instructions. For re-probing with a control antibody, blots were treated with stripping buffer [50 mM Tris.HCl pH 6.7, 100 mM βME, 2% SDS (w/v)] for 30 minutes at 50° C. and then incubated with a monoclonal anti-tubulin antibody (1/2000), followed by peroxidase-conjugate anti-mouse IgGs/(1/1000).

Assay [3] deals with tTG-null mouse dermal fibroblasts (MDF-TG−/−). The assay is described as follows: Anoikis quantification by TUNEL (flow cytometry and in situ microscopy). Type of assay: cell-based. To be noted: RGD peptide, ~15-hour, flow cytometry. As for the experimental part:
(§1) For fluorochrome labelling of DNA strand breaks, 6×10^5 cells were seeded in duplicate in 9.6 cm^2-wells pre-coated with FN or tTG-FN in the presence or absence of RGD peptide. After 15-hour incubation at 37° C. in a 5% CO2 atmosphere, all cells (adhered and non-adhered) were collected, washed twice in PBS pH 7.4, resuspended at the final concentration of 1.2×10^7 cells/ml and fixed in suspension by addition of one volume of 4% (w/v) PFM in PBS, pH 7.4 for 1 hour at room temperature. […] The fluorescence intensity measured by flow cytometry using a Beckman Coulter EPICS XL. Cells were collected and data stored using the SYSTEM II software and analysed using the WinMDI2.8 software. DNA fragmentation was also detected by in situ analysis of nuclei following TUNEL using a confocal fluorescent microscope (Leica). […] For quantification, the Leica LCS software was used to acquire three random images per well for a total of 9 images per experimental sample using a fixed protocol (with constant PMT and section-depth setting). Data are expressed as mean number of apoptotic cells per well. […] Data are expressed as absorbance values at 492 nm after subtraction of values at […] given by the unmetabolised salt.
(In general: Flow cytometry measures light scatter and fluorescence of single cells or particles in a stream.)

Assay [4] has the same test system. The assay is described as follows: Cell viability (XTT) assay. To be noted: RGD peptide ~15 hours. Type of assay: cell-based. Here is the method:
as §1

In assay [5] the test system is BRIN-BD11 (clonal β-cells). The assay is described as follows: Cell attachment and spreading of BRIN-BD11 cells. Type of assay: cell-based, rat. To be noted: excess RGD peptide. Here is the method: A novel insulin-secreting cell line (BRIN-BD11), which was established after electrofusion of RINm5F cells with New England Deaconess Hospital rat pancreatic islet cells, was grown confluent in RPMI 1640 media, supplemented with 10% FCS, 200 u/ml Penicillin, 200 ug/ml Streptomycin and L-Glutamine at 2 mM. The wells of microtitre plates were coated with FN (5 μg/ml) overnight at 4° C. The assigned wells were washed once with 50 mM Tris-HCl, pH 7.4 and then incubated with 20 μg/ml tTG solution (dissolved in PBS containing 2 mM EDTA pH 7.4) for 1 hour at 37° C. Meanwhile, exponentially growing cells were trypsinised and collected into medium containing approximately 7% (v/v) foetal calf serum. After a five-minute centrifugation at 300×g the cell pellet was washed twice in serum free medium to remove the traces of serum proteins. […] The cell attachment and spreading were quantified using the Scion image analysis programme, which is developed at the National Institute of Health (Washington DC, USA). The number of cells per image was assessed through threshold and particle analysis settings with a minimum particle size of 50 pixels. […] These were quantified by density slicing and particle analysis settings. […]

Where no end group is shown, it is not given here.

For the substance GRGDTP [RGD peptide, GRGDTP], in the assay with HOB cells [1] (100 μg/ml RGD peptide), the “cell spreading on FN” value is 10-50 % of control value. In addition, the “cell attachment on FN” value in the assay with HOB cells [1] (50 and 100 μg/ml RGD peptides) is 30-50 % of control values on FN. In the assay with HOB cells [1] (RGD peptide (100 μg/ml)), the “inhibition of cell attachment on the 70 kd fragment” value was about 40% and the “inhibition of cell spreading on the 70 kd fragment” value is given as about 40%. Also, in the assay with Swiss 3T3 fibroblasts, the “cell attachment on FN” value is recorded as 30-40 % of controls and the “cell spreading on FN” value was 30-40 % of controls. Further, in the assay with HOB cells [2], the “actin stress fibre organisation on FN” value is “actin was not organised into stress fibres”. In the assay on FAK, the “tyrosine phosphorylation of FAK on FN” value is on record as ~25 % of level in control cells on. In addition, the “apoptotic cells among total fibroblasts grown on FN” value in assay [3] was about 24%. In addition, the “decrease of cell viability on FN versus control RAD peptide” value in assay [4] is recorded as “around 20%”. Moreover, in assay [5], the “cell attachment and spreading on FN” value is listed as “decreased”.
